We go through one molecule from patent US10813880B2, “Isotretinoin oral-mucosal formulations and methods for using same” (Skyline Biosciences LLC, priority 2017, dated 2020).

Data set [1] concerns Human gingival keratinocytes. Put plainly: Cytotoxicity in 2D cultured oral epithelial cells (Cell Titer96 Aqueous One). The format is cell-based. The note with it: seven concentrations 0.3 to 0.00003%, 24 h. Here is the method: Human gingival keratinocytes derived from a single donor were cultured at 37° C. with 5% CO2, and 95% humidity in a 96-well plate for cytotoxicity evaluation. Cells were incubated in the presence of seven concentrations of isotretinoin ranging from 0.3 to 0.00003% for 24 h in triplicate. Untreated cells were used as baseline control. Cytotoxicity was evaluated using the Cell Titer96 Aqueous One (Promega, WI, USA) basic test according to manufacturer's instructions using an absorbance of 490 nm for the final colorimetric readings.

Data set [2] concerns Human oral mucosa 3D models (composed of human gingival keratinocytes). Put plainly: Irritation testing in 3D cultured oral epithelial cells (MTT). It is filed as cell-based. As to conditions: 4 hr. As to the method:
Human oral mucosa 3D models (composed of human gingival keratinocytes) were exposed topically to CCP-042 oral adhesive film (0.1%, 0.2%, and 0.3%) for 4 hr before viability assessment. Cell viability was measured by MTT assay on tissues, in triplicate. 1% Triton X-100 was used as positive control. The reduction of the viability of tissues exposed to formulations as compared to that of PBS-treated negative controls were used to predict the skin irritation potential using European Union (EU) and Globally Harmonized System (GHS) classifications, which define an irritant as a substance that reduces the viability of the exposed tissue to less than 50% of the viability of untreated controls.

For `CC1=C(/C=C/C(C)=C/C=C/C(C)=C\C(=O)O)C(C)(C)CCC1` [isotretinoin, (2Z,4E,6E,8E)-3,7-dimethyl-9-(2,6,6-trimethylcyclohex-1-en-1-yl)nona-2,4,6,8-tetraenoic acid], the “cytotoxicity (inhibition of viability of more than 20% of control)” value in data set [1] is given as “toxic”. For the same molecule, the “toxicity to 3D tissue” value in data set [2] (concentration 0.1%) and in data set [2] (concentration 0.2%) was “not toxic” in each case.
